Our source for the Papp A→B, Stability and Papp B→A values is ChEMBL document CHEMBL3867475, “Discovery of furo[2,3-d][1,3]thiazinamines as beta amyloid cleaving enzyme-1 (BACE1) inhibitors” (Bioorg Med Chem Lett, 2016).

One data set is described as follows: Permeability from apical side to basolateral side in human Caco2 cells. Format: ADME, cell-based. The note with it: Caco-2, read-out: permeability.
As for `NC1=N[C@@]2(c3cc(NC(=O)c4ccc(Cl)cn4)ccc3F)OCC[C@H]2CS1`, the Papp A→B was 17.7 ×10⁻⁶ cm/s.
On to `N#Cc1ccc(C(=O)Nc2ccc(F)c([C@@]34N=C(N)SC[C@@H]3CCO4)c2)nc1`, for which the Papp A→B worked out at 16.4 ×10⁻⁶ cm/s.

The nature of a further data set: Chemical stability of compound in aqueous condition at pH 1 to 10 at 40 degC measured up to 24 hrs. The note with it: buffer, pH 1, 24 h. Format: physicochemical.
Regarding `NC1=N[C@@]2(c3cc(NC(=O)c4ncccc4F)ccc3F)OCC[C@H]2CS1`, the Stability result is “Stable”.
In the case of `NC1=N[C@@]2(c3cc(NC(=O)c4ccc(Cl)cn4)ccc3F)OCC[C@H]2CS1`, the Stability entry is “Stable”.
On to `NC1=N[C@@]2(c3cc(NC(=O)c4ccccn4)ccc3F)OCC[C@H]2CS1`, for which the Stability entry is “Stable”.
In the case of `NC1=N[C@@]2(c3cc(NC(=O)c4ncc(Cl)cc4Cl)ccc3F)OCC[C@H]2CS1`, the Stability entry was “Stable”.
With `NC1=N[C@@]2(c3cc(NC(=O)c4ccc(OC(F)F)cn4)ccc3F)OCC[C@H]2CS1`, the Stability result was “Stable”.
As for `NC1=N[C@@]2(c3cc(NC(=O)c4ccc(Br)cn4)ccc3F)OCC[C@H]2CS1`, the Stability result was “Stable”.
`NC1=N[C@@]2(c3cc(NC(=O)c4ccc(F)cn4)ccc3F)OCC[C@H]2CS1`: the Stability result is “Stable”.
Turning to `N#Cc1ccc(C(=O)Nc2ccc(F)c([C@@]34N=C(N)SC[C@@H]3CCO4)c2)nc1`, the Stability result is reported as “Stable”.
In the case of `COc1cnc(C(=O)Nc2ccc(F)c([C@@]34N=C(N)SC[C@@H]3CCO4)c2)cn1`, the Stability result is listed as “Stable”.

The next data set in a line: Permeability from basolateral side to apical side in human Caco2 cells. Format: ADME, cell-based. The note with it: Caco-2, read-out: permeability.
In the case of `NC1=N[C@@]2(c3cc(NC(=O)c4ccc(Cl)cn4)ccc3F)OCC[C@H]2CS1`, the Papp B→A came out at 24.4 ×10⁻⁶ cm/s.
As to `N#Cc1ccc(C(=O)Nc2ccc(F)c([C@@]34N=C(N)SC[C@@H]3CCO4)c2)nc1`, the Papp B→A amounted to 54.2 ×10⁻⁶ cm/s.
